The text below walks through data of patent US20080207683A1, “BIARYL-S[…]-PYRAZOLO-PYRIDINE MODULATORS OF CATHEPSIN S” (priority 2007, published 2008).

In one assay the target is T1, Human CatS (Homo sapiens, UniProt P25774).
T1 construct: made in house; host or cells: Sf9 insect cells (baculovirus vector pFB+HT)
T1 sequence (P25774 115-331): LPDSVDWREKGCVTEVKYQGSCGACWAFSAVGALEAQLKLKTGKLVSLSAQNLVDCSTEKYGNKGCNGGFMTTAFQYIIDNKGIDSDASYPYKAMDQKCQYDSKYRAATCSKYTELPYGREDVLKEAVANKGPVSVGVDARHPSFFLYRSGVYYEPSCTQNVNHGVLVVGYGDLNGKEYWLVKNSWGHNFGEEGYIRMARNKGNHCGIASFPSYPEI
Description: CatS inhibition of hydrolysis of fluorescent substrate Z-Val-Val-Arg-AFC. It counts as biochemical.
Conditions: not given
Here is the method:
Human CatS was cloned into pFB+HT (from Stratagene clone), expressed in Sf9 cells, and purified over a Ni column. Fractions were concentrated and activated at pH 4.0 for 6 hr and then purified over a thiopropylsepharose column and eluted with 1×TBS, 500 mM NaCl, 1 mM EDTA, 25 mM DTT pH 7.6. Glycerol (50%) was added in a 1:1 (vol/vol) ratio (25% glycerol final) and protein was stored at −80° C. in 5 μL aliquots. […] The increase in fluorescence over time was monitored using λexcitation=400 nm and λemission=505 nm.
In equation 1, v is the initial rate measured in the presence of [I]0, the inhibitor concentration, using an enzyme concentration [E]0. v0 is the initial rate measured in the absence of inhibitor.
The compound `Cc1ccc2[nH]c([C@H](C)NC(=O)c3cccc(-c4cc(-c5nn(CCCN6CCCC6)c6c5CN(S(C)(=O)=O)CC6)ccc4Cl)c3)nc2c1` [Example 20, (S)-2′-Chloro-5′-[5-methanesulfonyl-1-(3-pyrrolidin-1-yl-propyl)-4,5,6,7-tetrahydro-1H-pyrazolo[4,3-c]pyridin-3-yl]-biphenyl-3-carboxylic acid [1-(5-methyl-1H-benzoimidazol-2-yl)-ethyl]-amide] showed a Ki of 188 nM.

Staying with this assay, now noted: apparent Ki, Morrison equation fit of initial rates; 10 μM Z-Val-Val-Arg-AFC, pH 5.0, 1.5 nM CatS; read-out: CatS Ki^app.
Turning to `CC(=O)N1CCc2c(c(-c3ccc(Cl)c(-c4cccc(C(=O)N[C@@H](C)c5nc6cc(F)c(F)cc6[nH]5)c4)c3)nn2CCCN2CCCC2)C1` [Example 37, (S)-5′-[5-Acetyl-1-(3-pyrrolidin-1-yl-propyl)-4,5,6,7-tetrahydro-1H-pyrazolo[4,3-c]pyridin-3-yl]-2′-chloro-biphenyl-3-carboxylic acid [1-(5,6-difluoro-1H-benzoimidazol-2-yl)-ethyl]-amide], the Ki was found to be 38.5 nM.

Consider `CC(C)(C)c1csc(CNC(=O)c2cccc(-c3cc(-c4nn(CCCN5CCCC5)c5c4CN(S(C)(=O)=O)CC5)ccc3Cl)c2)n1` [Example 22, 2′-Chloro-5′-[5-methanesulfonyl-1-(3-pyrrolidin-1-yl-propyl)-4,5,6,7-tetrahydro-1H-pyrazolo[4,3-c]pyridin-3-yl]-biphenyl-3-carboxylic acid (4-tert-butyl-thiazol-2-ylmethyl)-amide], for which the Ki was 75.4 nM.

On to `CCC(NC(=O)c1cccc(-c2cc(-c3nn(CCCN4CCCC4)c4c3CN(S(C)(=O)=O)CC4)ccc2Cl)c1)c1nc2cc(C)ccc2[nH]1` (centres unmarked) [Example 17, 2′-Chloro-5′-[5-methanesulfonyl-1-(3-pyrrolidin-1-yl-propyl)-4,5,6,7-tetrahydro-1H-pyrazolo[4,3-c]pyridin-3-yl]-biphenyl-3-carboxylic acid [1-(5-methyl-1H-benzoimidazol-2-yl)-propyl]-amide], for which the Ki was 125 nM.

In the case of `CS(=O)(=O)N1CCc2c(c(-c3ccc(Cl)c(-c4cccc(C(=O)NCc5nc(-c6ccccc6)cs5)c4)c3)nn2CCCN2CCCC2)C1` [Example 23, 2′-Chloro-5′-[5-methanesulfonyl-1-(3-pyrrolidin-1-yl-propyl)-4,5,6,7-tetrahydro-1H-pyrazolo[4,3-c]pyridin-3-yl]-biphenyl-3-carboxylic acid (4-phenyl-thiazol-2-ylmethyl)-amide], the Ki came to 88.9 nM.

Consider `O=C(NCCNc1ccc(OCC2CCCC2)cc1)c1cccc(-c2cc(-c3nn(CCCN4CCC(O)C4)c4c3CNCC4)ccc2Cl)c1` (centres unmarked) [Example 47, 2′-Chloro-5′-{1-[3-(3-hydroxy-pyrrolidin-1-yl)-propyl]-4,5,6,7-tetrahydro-1H-pyrazolo[4,3-c]pyridin-3-yl}-biphenyl-3-carboxylic acid [2-(4-cyclopentylmethoxy-phenylamino)-ethyl]-amide], for which the Ki is 53.7 nM.

As for `COc1ccc(NC(=O)CNC(=O)c2cccc(-c3cc(-c4nn(CCCN5CCCC5)c5c4CN(S(C)(=O)=O)CC5)ccc3Cl)c2)cc1` [Example 26, 2′-Chloro-5′-[5-methanesulfonyl-1-(3-pyrrolidin-1-yl-propyl)-4,5,6,7-tetrahydro-1H-pyrazolo[4,3-c]pyridin-3-yl]-biphenyl-3-carboxylic acid [(4-methoxy-phenylcarbamoyl)-methyl]-amide], the Ki came to 712 nM.

On to `CN(C)S(=O)(=O)c1ccc2c(c1)N(CCNC(=O)c1cccc(-c3cc(-c4nn(CCCN5CCCC5)c5c4CN(S(C)(=O)=O)CC5)ccc3Cl)c1)CC2` [Example 11, 2′-Chloro-5′-[5-methanesulfonyl-1-(3-pyrrolidin-1-yl-propyl)-4,5,6,7-tetrahydro-1H-pyrazolo[4,3-c]pyridin-3-yl]-biphenyl-3-carboxylic acid [2-(6-dimethylsulfamoyl-2,3-dihydro-indol-1-yl)-ethyl]-amide], for which the Ki worked out at 135 nM.

As for `C[C@@H](CN1CCc2cc(F)ccc21)NC(=O)c1cccc(-c2cc(-c3nn(CCCN4CCCC4)c4c3CN(S(C)(=O)=O)CC4)ccc2Cl)c1` [Example 9, (S)-2′-Chloro-5′-[5-methanesulfonyl-1-(3-pyrrolidin-1-yl-propyl)-4,5,6,7-tetrahydro-1H-pyrazolo[4,3-c]pyridin-3-yl]-biphenyl-3-carboxylic acid [2-(5-fluoro-2,3-dihydro-indol-1-yl)-1-methyl-ethyl]-amide], the Ki is 138 nM.

In the case of `Cc1ccc(NCCNC(=O)c2cccc(-c3cc(-c4nn(CCCN5CCC(O)C5)c5c4CNCC5)ccc3Cl)c2)cc1C` (centres unmarked) [Example 42, 2′-Chloro-5′-{1-[3-(3-hydroxy-pyrrolidin-1-yl)-propyl]-4,5,6,7-tetrahydro-1H-pyrazolo[4,3-c]pyridin-3-yl}-biphenyl-3-carboxylic acid [2-(3,4-dimethyl-phenylamino)-ethyl]-amide], the Ki is 41.7 nM.

Regarding `CS(=O)(=O)N1CCc2c(c(-c3ccc(Cl)c(-c4cccc(C(=O)NCc5nc6cc(F)ccc6s5)c4)c3)nn2CCCN2CCCC2)C1` [Example 25, 2′-Chloro-5′-[5-methanesulfonyl-1-(3-pyrrolidin-1-yl-propyl)-4,5,6,7-tetrahydro-1H-pyrazolo[4,3-c]pyridin-3-yl]-biphenyl-3-carboxylic acid (5-fluoro-benzothiazol-2-ylmethyl)-amide], the Ki turned out to be 117 nM.

Regarding `CS(=O)(=O)N1CCc2c(c(-c3ccc(Cl)c(-c4cccc(C(=O)NCCNc5cccnc5)c4)c3)nn2CCCN2CCCC2)C1` [Example 7, 2′-Chloro-5′-[5-methanesulfonyl-1-(3-pyrrolidin-1-yl-propyl)-4,5,6,7-tetrahydro-1H-pyrazolo[4,3-c]pyridin-3-yl]-biphenyl-3-carboxylic acid [2-(pyridin-3-ylamino)-ethyl]-amide], the Ki was 876 nM.

Consider `COc1ccc(NCCNC(=O)c2cccc(-c3cc(-c4nn(CCCN5CCC(O)C5)c5c4CN(S(C)(=O)=O)CC5)ccc3Cl)c2)cc1` (centres unmarked) [Example 28, 2′-Chloro-5′-{1-[3-(3-hydroxy-pyrrolidin-1-yl)-propyl]-5-methanesulfonyl-4,5,6,7-tetrahydro-1H-pyrazolo[4,3-c]pyridin-3-yl}-biphenyl-3-carboxylic acid [2-(4-methoxy-phenylamino)-ethyl]-amide], for which the Ki turned out to be 19.5 nM.

Regarding `CN(C)S(=O)(=O)c1cccc2c1N(CCNC(=O)c1cccc(-c3cc(-c4nn(CCCN5CCCC5)c5c4CN(S(C)(=O)=O)CC5)ccc3Cl)c1)CC2` [Example 10, 2′-Chloro-5′-[5-methanesulfonyl-1-(3-pyrrolidin-1-yl-propyl)-4,5,6,7-tetrahydro-1H-pyrazolo[4,3-c]pyridin-3-yl]-biphenyl-3-carboxylic acid [2-(7-dimethylsulfamoyl-2,3-dihydro-indol-1-yl)-ethyl]-amide], the Ki came to 49.4 nM.

With `CC(=O)N1CCc2c(c(-c3ccc(Cl)c(-c4cccc(C(=O)NCCN5CCc6cc(C)ccc65)c4)c3)nn2CCCN2CCCC2)C1` [Example 40, 5′-[5-Acetyl-1-(3-pyrrolidin-1-yl-propyl)-4,5,6,7-tetrahydro-1H-pyrazolo[4,3-c]pyridin-3-yl]-2′-chloro-biphenyl-3-carboxylic acid [2-(5-methyl-2,3-dihydro-indol-1-yl)-ethyl]-amide], the Ki came to 228 nM.

Turning to `CC(=O)N1CCc2c(c(-c3ccc(Cl)c(-c4cccc(C(=O)NC(C)c5nc6cc(C)ccc6[nH]5)c4)c3)nn2CCCN2CCCC2)C1` (centres unmarked) [Example 39, 5′-[5-Acetyl-1-(3-pyrrolidin-1-yl-propyl)-4,5,6,7-tetrahydro-1H-pyrazolo[4,3-c]pyridin-3-yl]-2′-chloro-biphenyl-3-carboxylic acid [1-(5-methyl-1H-benzoimidazol-2-yl)-ethyl]-amide], the Ki was 37 nM.

Regarding `COc1ccc(CNC(=O)c2cccc(-c3cc(-c4nn(CCCN5CCCC5)c5c4CN(C(C)=O)CC5)ccc3Cl)c2)cc1` [Example 41, 5′-[5-Acetyl-1-(3-pyrrolidin-1-yl-propyl)-4,5,6,7-tetrahydro-1H-pyrazolo[4,3-c]pyridin-3-yl]-2′-chloro-biphenyl-3-carboxylic acid 4-methoxy-benzylamide], the Ki is 430 nM.

Regarding `CC(C)c1ccc(NCCNC(=O)c2cccc(-c3cc(-c4nn(CCCN5CCC(O)C5)c5c4CNCC5)ccc3Cl)c2)cc1` (centres unmarked) [Example 43, 2′-Chloro-5′-{1-[3-(3-hydroxy-pyrrolidin-1-yl)-propyl]-4,5,6,7-tetrahydro-1H-pyrazolo[4,3-c]pyridin-3-yl}-biphenyl-3-carboxylic acid [2-(4-isopropyl-phenylamino)-ethyl]-amide], the Ki amounted to 48.5 nM.

Turning to `COc1ccc(NCCNC(=O)c2cccc(-c3cc(-c4nn(CCCN5CCCC5)c5c4CN(S(C)(=O)=O)CC5)ccc3Cl)c2)cc1Cl` [Example 4, 2′-Chloro-5′-[5-methanesulfonyl-1-(3-pyrrolidin-1-yl-propyl)-4,5,6,7-tetrahydro-1H-pyrazolo[4,3-c]pyridin-3-yl]-biphenyl-3-carboxylic acid [2-(3-chloro-4-methoxy-phenylamino)-ethyl]-amide], the Ki turned out to be 253 nM.

As for `CS(=O)(=O)N1CCc2c(c(-c3ccc(Cl)c(-c4cccc(C(=O)NCCNc5cccc6c5CCC6)c4)c3)nn2CCCN2CCCC2)C1` [Example 3, 2′-Chloro-5′-[5-methanesulfonyl-1-(3-pyrrolidin-1-yl-propyl)-4,5,6,7-tetrahydro-1H-pyrazolo[4,3-c]pyridin-3-yl]-biphenyl-3-carboxylic acid [2-(indan-4-ylamino)-ethyl]-amide], the Ki turned out to be 335 nM.
